What was measured:
[1] = tested on: triglyceride (neutral fat) level in plasma; details: mice, oral administration, compared with mice not orally administered with ergothioneine; cited from earlier work
[2] = tested on: HDL cholesterol and LDL cholesterol in the blood; experiment: Blood cholesterol evaluation study on human (placebo-controlled, randomized, double-blind, parallel-group); type: in vivo; details: human adults, one capsule (20 mg L-ergothioneine) per day orally for four weeks, week 4 vs pre-testing, compared with control food group
Procedure: In order to evaluate the influence of supplements containing ergothioneine on human blood cholesterol levels, a placebo-controlled, randomized, double-blind, parallel-group study was conducted on subjects including male and female adults (46 subjects in a test food group; 46 subjects in a control food group; 92 subjects in total). In this study, one capsule containing 20 mg ergothioneine (test food) or one capsule not containing ergothioneine (control food) was fed per day for four weeks. The blood cholesterol levels of the subjects were measured for pre-testing before starting the study (before starting ingestion of the test food or control food). After ingestion of the test food or control food for four weeks, the blood cholesterol levels of the subjects were measured again (testing on week 4). The cholesterol measured includes HDL cholesterol and LDL cholesterol. […] The ratio of LDL cholesterol level to HDL cholesterol level (LDL/HDL ratio) in the blood was determined for each subject from the measurements (mg/dL) of HDL cholesterol and LDL cholesterol. […] For each group, the amount of changes in LDL/HDL ratio (Δ in LDL/HDL ratio) from the time of pre-testing was determined by subtracting the LDL/HDL ratio at the time of pre-testing from the LDL/HDL ratio at the time of testing on week 4 ((LDL/HDL ratio at the time of testing on week 4)—(LDL/HDL ratio at the time of pre-testing)). […]

C[N+](C)(C)[C@@H](Cc1c[nH]c(=S)[nH]1)C(=O)[O-] [L-ergothioneine]
triglyceride (neutral fat) level in plasma [1]: lower
changes in HDL cholesterol level (Δ in HDL cholesterol) in the blood [2]: increased
changes in LDL/HDL ratio (Δ in LDL/HDL ratio) in the blood [2]: reduced

From patent US20240156785A1, “COMPOSITION FOR IMPROVING BLOOD CHOLESTEROL LEVEL” (SUNTORY HOLDINGS LIMITED, priority 2021, published 2024)
